Measurements as given in publication PMC7070036, “An amber obligate active site-directed ligand evolution technique for phage display” (Nature Communications, 2020).
Values joined by “and” are separate entries in the source; they are usually repeats but may differ in a detail not shown here. Identical values can stand only once. Like-named read-outs stand apart in the source and are kept apart here.

Columns and labels:
Type in all cases: biochemical
SIRT2 [1] = target: T1, SIRT2 (Homo sapiens, UniProt Q8IXJ6); assay: Continuous fluorogenic sirtuin inhibition assay, SIRT2 (tBuK peptides, TB)
T1 sequence (Q8IXJ6 1-389): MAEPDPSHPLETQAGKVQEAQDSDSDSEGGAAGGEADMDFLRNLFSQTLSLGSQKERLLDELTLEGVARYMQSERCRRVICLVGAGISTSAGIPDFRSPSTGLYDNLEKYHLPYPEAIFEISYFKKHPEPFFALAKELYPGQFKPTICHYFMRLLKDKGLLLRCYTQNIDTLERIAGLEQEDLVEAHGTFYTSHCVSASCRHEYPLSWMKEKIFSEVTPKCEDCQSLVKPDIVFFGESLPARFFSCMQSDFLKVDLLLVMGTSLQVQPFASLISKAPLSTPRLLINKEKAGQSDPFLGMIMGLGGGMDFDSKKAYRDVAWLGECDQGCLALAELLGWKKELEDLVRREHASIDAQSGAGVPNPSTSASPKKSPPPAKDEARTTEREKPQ
Protocol: (§1) The continuous assay for comparing isoform specificity of S2P04 was performed using the universal fluorogenic sirtuin substrate described by Schuster et al.[41]. Briefly, the inhibition reactions were performed in 50-µL volumes at 37 °C in black, half-area, 96-well plates. The sirtuin enzyme (0.25 µM) was preincubated with different concentrations of the peptide S2P04 (0.0064–50 µM for SIRT1 and SIRT2, 0.5–100 µM for SIRT3) or TB (0.16–150 µM for SIRT1–SIRT3), and 1 mM NAD^+ in assay buffer (20 mM Tris, pH 7.8, 150 mM NaCl, 5 mM MgCl2, and 1 mM DTT) for 15 min. Following incubation, the reaction started with the addition of the fluorogenic substrate (5 µM), and product formation was monitored by measuring the fluorescence intensity every 20 s for 5 min (SIRT2) or 30 min (SIRT1 and SIRT3) in a BioTek Synergy H1 microplate reader at λex = 320 nm and λem = 408 nm (gain = 130 and read height = 7 mm). Initial rates of product formation were determined by a linear regression of the plot of fluorescence intensity vs. time and normalized relative to 0% (max inhibitor) and 100% (no inhibitor) controls. The assay was repeated to determine the IC50 values of all BuK peptides for SIRT2. IC50 values were determined by nonlinear regression of the plot of the normalized initial rate vs. inhibitor concentration using GraphPad Prism. The determined IC50 values are provided in Supplementary Table 2, and inhibition curves can be seen in Supplementary Fig. 20.

SIRT1 = target: T2, SIRT1 (Homo sapiens, UniProt Q96EB6); assay: Continuous fluorogenic sirtuin inhibition assay, SIRT1
T2 sequence (Q96EB6 1-747): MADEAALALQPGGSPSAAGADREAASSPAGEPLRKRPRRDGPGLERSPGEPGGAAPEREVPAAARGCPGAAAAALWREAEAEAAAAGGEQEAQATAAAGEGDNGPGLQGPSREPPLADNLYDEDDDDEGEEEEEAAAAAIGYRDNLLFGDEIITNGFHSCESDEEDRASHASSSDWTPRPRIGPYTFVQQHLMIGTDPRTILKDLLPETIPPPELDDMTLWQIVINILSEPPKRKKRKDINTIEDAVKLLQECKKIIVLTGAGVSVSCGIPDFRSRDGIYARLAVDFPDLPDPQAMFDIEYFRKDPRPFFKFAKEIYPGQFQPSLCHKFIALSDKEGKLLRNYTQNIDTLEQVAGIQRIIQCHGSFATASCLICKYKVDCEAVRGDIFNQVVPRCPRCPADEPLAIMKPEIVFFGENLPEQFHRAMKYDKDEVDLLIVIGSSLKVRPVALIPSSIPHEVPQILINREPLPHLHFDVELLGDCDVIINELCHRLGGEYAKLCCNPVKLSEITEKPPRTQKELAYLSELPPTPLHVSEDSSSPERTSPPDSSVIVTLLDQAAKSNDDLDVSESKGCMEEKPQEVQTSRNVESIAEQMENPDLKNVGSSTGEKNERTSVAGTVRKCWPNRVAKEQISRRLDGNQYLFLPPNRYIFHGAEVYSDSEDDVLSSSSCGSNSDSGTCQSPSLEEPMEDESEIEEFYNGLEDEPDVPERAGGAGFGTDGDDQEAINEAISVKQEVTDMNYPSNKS
Protocol: as §1

SIRT3 = target: T3, SIRT3 (Homo sapiens, UniProt Q9NTG7); assay: Continuous fluorogenic sirtuin inhibition assay, SIRT3
T3 sequence (Q9NTG7 1-399): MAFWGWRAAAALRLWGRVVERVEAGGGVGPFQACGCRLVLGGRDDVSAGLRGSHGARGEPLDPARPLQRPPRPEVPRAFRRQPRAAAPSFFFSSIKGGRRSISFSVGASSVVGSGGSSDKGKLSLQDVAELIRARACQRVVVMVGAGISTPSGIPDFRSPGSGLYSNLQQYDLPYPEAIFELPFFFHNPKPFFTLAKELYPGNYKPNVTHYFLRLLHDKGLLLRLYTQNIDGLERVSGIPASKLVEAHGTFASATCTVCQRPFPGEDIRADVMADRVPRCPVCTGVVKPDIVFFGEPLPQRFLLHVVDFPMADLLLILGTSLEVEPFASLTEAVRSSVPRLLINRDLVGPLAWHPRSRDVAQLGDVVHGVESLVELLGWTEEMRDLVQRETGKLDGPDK
Protocol: as §1

SIRT2 [2] = target: T1, SIRT2; assay: SIRT2 inhibition assay for thiomyristoyl peptides
Protocol: Assays were performed in 40-µL volumes at 37 °C in black, 384-well plates. […] Following incubation, the reaction started with the addition of the fluorogenic substrate (5 µM), and product formation was monitored by measuring the fluorescence intensity every 20 s for 5 min (SIRT2) in a BioTek Synergy H1 microplate reader at λex = 320 nm and λem = 408 nm (gain = 130 and read height = 7 mm). Initial rates were determined using the plot of fluorescence vs. time for linear portions of each curve. IC50 values were then determined using GraphPad Prism to fit a nonlinear regression to the normalized rates vs. inhibitor concentration.

[3] = mean ± SD of two independent experiments

## CCCC(=S)NCCCC[C@H](NC(=O)OCc1ccccc1)C(=O)Nc1ccccc1 [TB, reference compound]
SIRT2 [1]; 0.25 µM SIRT2, 1 mM NAD+, 5 µM fluorogenic substrate, 15 min preincubation, n = 2, read-out: IC50
  IC50: 3.11 ± 0.045 µM
SIRT2 [1]; inhibitor 0.5 µM, read-out: Normalized Activity, SIRT2
  remaining activity at 0.5 µM: 112%
SIRT2 [1]; inhibitor 0.5 µM, single trials
  activity at 0.5 µM: 112%
SIRT2 [1]; inhibitor 0.5 µM, single trials, 0.5 µM
  %Activity, SIRT2: 98.9568%
SIRT2 [1]; inhibitor 1 µM, read-out: Normalized Activity, SIRT2
  remaining activity at 1 µM: 80.3%
SIRT2 [1]; inhibitor 1 µM, single trials
  activity at 1 µM: 80.3%
SIRT2 [1]; inhibitor 1 µM, single trials, 1 µM
  %Activity, SIRT2: 81.929%
SIRT2 [1]; inhibitor 4 µM, read-out: Normalized Activity, SIRT2
  remaining activity at 4 µM: 40.6%
SIRT2 [1]; inhibitor 4 µM, single trials
  activity at 4 µM: 40.6%
SIRT2 [1]; inhibitor 4 µM, single trials, 4 µM
  %Activity, SIRT2: 42.8707%
SIRT2 [1]; inhibitor 10 µM, read-out: Normalized Activity, SIRT2
  remaining activity at 10 µM: 6.05%
SIRT2 [1]; inhibitor 10 µM, single trials
  activity at 10 µM: 6.05%
SIRT2 [1]; inhibitor 10 µM, single trials, 10 µM
  %Activity, SIRT2: 11.4809%
SIRT2 [1]; inhibitor 50 µM, single trials, 50 µM
  %Activity, SIRT2: -6.644% and -4.551%
SIRT2 [1]; inhibitor 100 µM, (Activity/Activity w/o inhibitor)*100, single trials, 100 µM
  %Activity, SIRT2: -5.573% and -9.821%
SIRT2 [1]; inhibitor 150 µM, 100 = Activity w/o inhibitor, 0 = Activity of highest inhibitor, read-out: Normalized Activity, SIRT2
  remaining activity at 150 µM: 0%
SIRT2 [1]; mean ± SD of two independent experiments, read-out: IC50, SIRT2
  IC50: 3.11 ± 0.04 µM
SIRT1; inhibitor 0.5 µM, read-out: Normalized Activity, SIRT1
  remaining activity at 0.5 µM: 98.9%
SIRT1; inhibitor 1 µM, read-out: Normalized Activity, SIRT1
  remaining activity at 1 µM: 99%
SIRT1; inhibitor 4 µM, read-out: Normalized Activity, SIRT1
  remaining activity at 4 µM: 75%
SIRT1; inhibitor 10 µM, read-out: Normalized Activity, SIRT1
  remaining activity at 10 µM: 55.9%
SIRT1; inhibitor 150 µM, 100 = Activity w/o inhibitor, 0 = Activity of highest inhibitor, read-out: Normalized Activity, SIRT1
  remaining activity at 150 µM: 0%
SIRT1; [3]
  IC50: 9.62 ± 0.09 µM
SIRT3; 0.16–150 µM
  inhibition of SIRT3: 0 = Activity of highest inhibitor *TB for SIRT3 showed no inhibiton
SIRT3; inhibitor 0.5 µM, read-out: Normalized Activity, SIRT3
  remaining activity at 0.5 µM: 90.6%
SIRT3; inhibitor 1 µM, read-out: Normalized Activity, SIRT3
  remaining activity at 1 µM: 91.2%
SIRT3; inhibitor 4 µM, read-out: Normalized Activity, SIRT3
  remaining activity at 4 µM: 93.9%
SIRT3; inhibitor 10 µM, read-out: Normalized Activity, SIRT3
  remaining activity at 10 µM: 92.4%
SIRT3; inhibitor 100 µM, read-out: Normalized Activity, SIRT3
  remaining activity at 100 µM: 79.9%
SIRT3; [3]
  IC50: > 150 µM

## CCCCCCCCCCCCCC(=S)NCCCC[C@H](NC(=O)OCc1ccccc1)C(=O)Nc1ccccc1 [TM, reference compound]
SIRT2 [2]; inhibitor 0.488281 nM
  activity at 0.000488281 µM: 101%
SIRT2 [2]; inhibitor 0.488281 nM, 0.000488281 µM
  %Activity, SIRT2: 98.9615%
SIRT2 [2]; inhibitor 0.976562 nM
  activity at 0.000976562 µM: 72.4%
SIRT2 [2]; inhibitor 0.976562 nM, 0.000976562 µM
  %Activity, SIRT2: 83.3212% and 86.8904% and 88.3827%
SIRT2 [2]; inhibitor 1.95312 nM
  activity at 0.00195312 µM: 90.7%
SIRT2 [2]; inhibitor 1.95312 nM, 0.00195312 µM
  %Activity, SIRT2: 86.75%
SIRT2 [2]; inhibitor 3.90625 nM, 0.00390625 µM
  %Activity, SIRT2: 101.659% and 86.3725% and 107.923%
SIRT2 [2]; inhibitor 7.8125 nM, 0.0078125 µM
  %Activity, SIRT2: 82.8428% and 60.4593% and 105.944% and 110.889%
SIRT2 [2]; inhibitor 15.625 nM
  activity at 0.015625 µM: 83.3%
SIRT2 [2]; inhibitor 15.625 nM, 0.015625 µM
  %Activity, SIRT2: 84.6885%
SIRT2 [2]; inhibitor 62.5 nM
  activity at 0.0625 µM: 60.2%
SIRT2 [2]; inhibitor 62.5 nM, 0.0625 µM
  %Activity, SIRT2: 43.9326%
SIRT2 [2]; inhibitor 125 nM
  activity at 0.125 µM: 22.5%
SIRT2 [2]; inhibitor 125 nM, 0.125 µM
  %Activity, SIRT2: 19.1421%
SIRT2 [2]; inhibitor 250 nM
  activity at 0.25 µM: 12.4%
SIRT2 [2]; inhibitor 250 nM, 0.25 µM
  %Activity, SIRT2: 20.6592%
SIRT2 [2]; inhibitor 500 nM, 0.5 µM
  %Activity, SIRT2: 1.575% and -2.11% and 0.5358%
SIRT2 [2]; inhibitor 1000 nM
  activity at 1 µM: 5.56%
SIRT2 [2]; inhibitor 1000 nM, 1 µM
  %Activity, SIRT2: 5.083%
